Experimental data as given in ChEMBL document CHEMBL6127088, “Novel 2-aminothiazole analogues both as polymyxin E synergist and antimicrobial agent against multidrug-resistant Gram-positive bacteria” (2024).
Values after ≈ are worked out from the molar mass of the structure shown. Active and inactive are the calls of the source. No cut-off for these calls is given here.

Experiments:
Cell membrane [1] = assay: Induction of outer membrane disruption in Acinetobacter baumannii ATCC 19606 assessed as decrease in fluorescence intensity in presence of polymyxin-E by NPN dye based fluorescence analysis; assay type: subcellular
Cell membrane [2] = assay: Induction of outer membrane disruption in Acinetobacter baumannii ATCC 19606 assessed as decrease in fluorescence intensity by NPN dye based fluorescence analysis; assay type: subcellular
Klebsiella pneumoniae [3] = assay: Synergistic antibacterial activity against Klebsiella pneumoniae SIPI-KPN-1712 assessed as fractional inhibitory concentration index at 4 microg/ml incubated for 18 to 20 hrs by chequerboard assay; assay type: functional; details: dose 4 µg/ml; time 18-20 hrs
Acinetobacter baumannii [4] = assay: Synergistic antibacterial activity against Acinetobacter baumannii Ab 1613 assessed as fractional inhibitory concentration index at 4 microg/ml incubated for 18 to 20 hrs by chequerboard assay; assay type: functional; details: dose 4 µg/ml; time 18-20 hrs
Klebsiella pneumoniae [5] = assay: Synergistic antibacterial activity against Klebsiella pneumoniae KPN 1617 assessed as fractional inhibitory concentration index at 4 microg/ml incubated for 18 to 20 hrs by chequerboard assay; assay type: functional; details: dose 4 µg/ml; time 18-20 hrs
Staphylococcus aureus [6] = assay: Antibacterial activity against Staphylococcus aureus S1-1-65 assessed as inhibition of bacterial growth incubated for 18 hrs by broth microdilution method; assay type: functional
Acinetobacter baumannii [7] = assay: Synergistic antibacterial activity against Acinetobacter baumannii Ab 1613 assessed as fold change in polymyxin-E MIC incubated for 18 hrs by broth microdilution method relative to polymyxin-E alone; assay type: functional
Acinetobacter baumannii [8] = assay: Synergistic antibacterial activity against Acinetobacter baumannii Ab 1611 assessed as polymyxin-E MIC at 4 microg/ml incubated for 18 hrs by broth microdilution method; assay type: functional; details: dose 4 µg/ml
Staphylococcus aureus [9] = assay: Antibacterial activity against methicillin-resistant Staphylococcus aureus ATCC 43300 assessed as inhibition of bacterial growth at 0.5 to 1 microg/ml incubated for 0 to 8 hrs by time-kill assay; assay type: functional, organism-based; details: dose 0.5-1 µg/ml, time 0-8 hrs
Acinetobacter baumannii [10] = assay: Antibacterial activity against Acinetobacter baumannii ATCC 19606 assessed as inhibition of bacterial growth at 4 microg/ml incubated for overnight in presence of 0.25 microg/ml polymyxin-E by time-kill assay; assay type: functional, organism-based; details: dose 4.0 µg/ml
Bacillus subtilis [11] = assay: Antibacterial activity against Bacillus subtilis 168 assessed as inhibition of bacterial growth incubated for 18 hrs by broth microdilution method; assay type: functional
Bacillus subtilis [12] = assay: Antimicrobial activity against Bacillus subtilis ATCC 20678 incubated for 18 hrs by broth microdilution method; assay type: functional
Klebsiella pneumoniae [13] = assay: Synergistic antibacterial activity against Klebsiella pneumoniae KPN 943 assessed as fold change in polymyxin-E MIC incubated for 18 hrs by broth microdilution method relative to polymyxin-E alone; assay type: functional
Pseudomonas aeruginosa [14] = assay: Synergistic antibacterial activity against Pseudomonas aeruginosa PAE 3887 assessed as fold change in polymyxin-E MIC incubated for 18 hrs by broth microdilution method relative to polymyxin-E alone; assay type: functional
Bacillus subtilis [15] = assay: Antibacterial activity against Bacillus subtilis CMCC(B) 63501 assessed as inhibition of bacterial growth incubated for 18 hrs by broth microdilution method; assay type: functional
Acinetobacter baumannii [16] = assay: Antimicrobial activity against Acinetobacter baumannii ATCC 19606 incubated for 18 hrs by broth microdilution method; assay type: functional
Pseudomonas aeruginosa [17] = assay: Antibacterial activity against Pseudomonas aeruginosa ATCC 13883 incubated for 18 hrs by broth microdilution method; assay type: functional
Klebsiella pneumoniae [18] = assay: Synergistic antibacterial activity against Klebsiella pneumoniae KPN 1617 assessed as polymyxin-E MIC at 4 microg/ml incubated for 18 hrs by broth microdilution method; assay type: functional; details: dose 4 µg/ml
Acinetobacter baumannii [19] = assay: Synergistic antibacterial activity against Acinetobacter baumannii Ab 1613 assessed as polymyxin-E MIC at 4 microg/ml incubated for 18 hrs by broth microdilution method; assay type: functional; details: dose 4 µg/ml
Pseudomonas aeruginosa [20] = assay: Synergistic antibacterial activity against Pseudomonas aeruginosa […] assessed as fractional inhibitory concentration index at 4 microg/ml incubated for 18 to 20 hrs by chequerboard assay; assay type: functional; details: dose 4 µg/ml; time 18-20 hrs
Cell membrane [21] = assay: Disruption of cell membrane integrity in Acinetobacter baumannii ATCC 19606 assessed as cellular damage at 4 microg/ml incubated for 1 hrs by TEM analysis; details: dose 4.0 µg/ml
Pseudomonas aeruginosa [22] = assay: Synergistic antibacterial activity against Pseudomonas aeruginosa PAE 3887 assessed as polymyxin-E MIC at 4 microg/ml incubated for 18 hrs by broth microdilution method; assay type: functional; details: dose 4 µg/ml
Acinetobacter baumannii [23] = assay: Synergistic antibacterial activity against Acinetobacter baumannii Ab 1611 assessed as fold change in polymyxin-E MIC incubated for 18 hrs by broth microdilution method relative to polymyxin-E alone; assay type: functional
Acinetobacter baumannii [24] = assay: Synergistic antimicrobial activity against Acinetobacter baumannii ATCC 19606 assessed as fractional inhibitory concentration index in presence of polymyxin E incubated for 18 to 20 hrs by chequerboard assay; assay type: functional; details: time 18-20 hrs
Acinetobacter baumannii [25] = assay: Antibacterial activity against Acinetobacter baumannii ATCC 19606 infected in female Balb/c mouse model assessed as increase in animal survival at 64 mg/kg, iv administered every 12 hrs and measured for 7 days; assay type: functional, organism-based
Staphylococcus aureus [26] = assay: Antibacterial activity against Staphylococcus aureus S1-1-1 assessed as inhibition of bacterial growth incubated for 18 hrs by broth microdilution method; assay type: functional
Acinetobacter baumannii [27] = assay: Synergistic antibacterial activity against Acinetobacter baumannii ATCC 19606 assessed as polymyxin-E MIC at 4 microg/ml incubated for 18 hrs by broth microdilution method; assay type: functional; details: dose 4 µg/ml
Klebsiella pneumoniae [28] = assay: Antibacterial activity against Klebsiella pneumoniae KPN 1617 incubated for 18 hrs by broth microdilution method; assay type: functional
Staphylococcus aureus [29] = assay: Antimicrobial activity against methicillin/ofloxacin-resistant Staphylococcus aureus ATCC 43300 assessed as minimum inhibitory concentration incubated for 18 hrs by broth microdilution method; assay type: functional
Acinetobacter baumannii [30] = assay: Synergistic antibacterial activity against Acinetobacter baumannii ATCC 19606 assessed as fractional inhibitory concentration index at 4 microg/ml incubated for 18 to 20 hrs by chequerboard assay; assay type: functional; details: dose 4 µg/ml; time 18-20 hrs
Klebsiella pneumoniae [31] = assay: Synergistic antibacterial activity against Klebsiella pneumoniae SIPI-KPN-1712 assessed as polymyxin-E MIC at 4 microg/ml incubated for 18 hrs by broth microdilution method; assay type: functional; details: dose 4 µg/ml
[32] = tested on: Mycolicibacterium smegmatis; assay: Antibacterial activity against Mycobacterium smegmatis MC 2155 assessed as inhibition of bacterial growth incubated for 18 hrs by broth microdilution method; assay type: functional
Klebsiella pneumoniae [33] = assay: Synergistic antibacterial activity against Klebsiella pneumoniae KPN 1617 assessed as fold change in polymyxin-E MIC incubated for 18 hrs by broth microdilution method relative to polymyxin-E alone; assay type: functional
Pseudomonas aeruginosa [34] = assay: Antibacterial activity against Pseudomonas aeruginosa PAE 3887 incubated for 18 hrs by broth microdilution method; assay type: functional
Acinetobacter baumannii [35] = assay: Antibacterial activity against Acinetobacter baumannii Ab 1611 incubated for 18 hrs by broth microdilution method; assay type: functional
Staphylococcus aureus [36] = assay: Antibacterial activity against Staphylococcus aureus SF 8300 assessed as inhibition of bacterial growth incubated for 18 hrs by broth microdilution method; assay type: functional
Bacillus subtilis [37] = assay: Antibacterial activity against Bacillus subtilis ATCC 6633 assessed as inhibition of bacterial growth incubated for 18 hrs by broth microdilution method; assay type: functional
[38] = tested on: Mycolicibacterium smegmatis; assay: Antibacterial activity against Mycobacterium smegmatis ATCC 704 assessed as inhibition of bacterial growth incubated for 18 hrs by broth microdilution method; assay type: functional
Cell membrane [39] = assay: Disruption of cell membrane integrity in Acinetobacter baumannii ATCC 19606 assessed as reduction in nucleoid boundaries at 4 microg/ml incubated for 1 hrs in presence of polymyxin-E by TEM analysis; assay type: subcellular; set-up: scale not given: the % may be the effect or the level left; details: dose 4.0 µg/ml

C/C(=N\Nc1ccccn1)c1csc(Nc2cc(F)cc(C(F)(F)F)c2)n1
Activity (Cell membrane [1]): Active | Activity (Cell membrane [2]): Active | fractional inhibitory concentration index (FICI) (Klebsiella pneumoniae [3]): 0.094 | fractional inhibitory concentration index (FICI) (Acinetobacter baumannii [4]): 0.281 | fractional inhibitory concentration index (FICI) (Klebsiella pneumoniae [5]): 0.094 | MIC (Staphylococcus aureus [6]): 4 µg/mL (≈ 10.1 µM) | fold change (FC) (Acinetobacter baumannii [7]): 4 | MIC (Acinetobacter baumannii [8]): 0.063 µg/mL | Activity (Staphylococcus aureus [9]): Active | Activity (Acinetobacter baumannii [10]): Active | MIC (Bacillus subtilis [11]): 1 µg/mL (≈ 2.53 µM) | MIC (Bacillus subtilis [12]): 1 µg/mL (≈ 2.53 µM) | fold change (FC) (Klebsiella pneumoniae [13]): 32 | fold change (FC) (Pseudomonas aeruginosa [14]): 16 | MIC (Bacillus subtilis [15]): 0.5 µg/mL (≈ 1.26 µM) | MIC (Acinetobacter baumannii [16]): 128 µg/mL (≈ 324 µM) | MIC (Pseudomonas aeruginosa [17]): > 128 µg/mL | MIC (Klebsiella pneumoniae [18]): 0.5 µg/mL | MIC (Acinetobacter baumannii [19]): 0.125 µg/mL | fractional inhibitory concentration index (FICI) (Pseudomonas aeruginosa [20]): 0.531 | Activity (Cell membrane [21]): Active | MIC (Pseudomonas aeruginosa [22]): 0.125 µg/mL | fold change (FC) (Acinetobacter baumannii [23]): 16 | fractional inhibitory concentration index (FICI) (Acinetobacter baumannii [24]): 0.066 | Activity (Acinetobacter baumannii [25]): inactive | MIC (Staphylococcus aureus [26]): 1 µg/mL (≈ 2.53 µM) | MIC (Acinetobacter baumannii [27]): 0.031 µg/mL | MIC (Klebsiella pneumoniae [28]): > 128 µg/mL | MIC (Staphylococcus aureus [29]): 1 µg/mL (≈ 2.53 µM) | fractional inhibitory concentration index (FICI) (Acinetobacter baumannii [30]): 0.094 | MIC (Klebsiella pneumoniae [31]): 2 µg/mL | MIC [32]: 1 µg/mL (≈ 2.53 µM) | fold change (FC) (Klebsiella pneumoniae [33]): 16 | MIC (Pseudomonas aeruginosa [34]): > 128 µg/mL | MIC (Acinetobacter baumannii [35]): > 128 µg/mL | MIC (Staphylococcus aureus [36]): 1 µg/mL (≈ 2.53 µM) | MIC (Bacillus subtilis [37]): 2 µg/mL (≈ 5.06 µM) | MIC [38]: 1 µg/mL (≈ 2.53 µM) | Activity (Cell membrane [39]): 100%
